Laboratory results: patent US20140094434A1, “AMINO ACID COMPOSITION” (AJINOMOTO CO., INC, priority 2011, published 2014)

Legend:
[1] = test system: isolated rat hepatocytes; details: Biochem. J., 1991, 273: 57-62; cited from earlier work
[2] = test system: Male C57BL/6J mice; assay: Spontaneous motor activity after 90 minutes treadmill running exercise; format: in vivo, mouse; details: Example 5, FIG. 8; oral dextrin 2 g/kg; measured for 3 hours after 90 minutes running; vs water administration
Description: Male C57BL/6J mice were habituated to a running exercise using a treadmill, and subjected to a test. The mice were fasted overnight, and orally administered (1) dextrin 2 g/kg, or (2) dextrin 1 g/kg and L-alanine (Ala) 1 g/kg. From 15 minutes after the administration, a 90 minutes running exercise was loaded at a rate of 26 m/minute using the treadmill. After exercise loading, the mice were transferred into a cage, and the motor activity was measured using a spontaneous motor activity monitor (NS-AS01: Neuroscience Inc.) for 3 hours (dextrin and dextrin+Ala in FIG. 8). As a control, the mice administered the above-mentioned (1) or (2) were administered water instead of (1) or (2), and the spontaneous motor activity was measured in the same manner (dextrin (water administration) and dextrin+Ala (water administration) in FIG. 8). In addition, the spontaneous motor activity of mice in a resting state after fasting overnight and free of the exercise loading was measured for 3 hours in the same manner (in rest in FIG. 8).

[3] = humans; ingestion of proline; Metabolism, 2004, 53(2): 241-246; cited from earlier work

| Compound | glycogen synthesis [1] | spontaneous motor activity after running exercise loading [2] | increase of blood glucose level after glucose ingestion [3] |
| --- | --- | --- | --- |
| NC(=O)C[C@H](N)C(=O)O [asparagine] | enhance |  |  |
| NC(=O)CC[C@H](N)C(=O)O [glutamine] | enhance |  |  |
| dextrin |  | increased |  |
| C[C@H](N)C(=O)O [alanine] | enhance |  |  |
| O=C(O)[C@@H]1CCCN1 [proline] | enhance |  | suppresses |
| N[C@@H](Cc1c[nH]cn1)C(=O)O [histidine] | enhance |  |  |
